Source: patent publication US5696151A, “Compounds useful for the inhibition of the replication of HIV-1 and HIV-1 mutants” (priority 1995, dated 1997)
Converted amounts (≈) assume the structure as drawn.

Key:
Type in all cases: cell-based
HIV-1(IIIB) = experiment: Inhibition of HIV-1 induced syncytium formation in CEM cells, wild type; settings: Human immunodeficiency virus 1, IIIB, CCRF-CEM, 96 h, Table 2B, WT = HIV-1(IIIB), day 4, averages of 2 to 3 independent experiments, read-out: Antiviral Activity of Comparative Compounds EC50, WT
Source text: (§1) CEM cells were obtained from the American Tissue Cell Culture Collection (Rockville, Md.). HIV-1(IIIB) was originally obtained from the culture supernatant of persistently HIV-1-infected H9 cells and was provided by R. C. Gallo and M. Popovic (National Cancer Institute, National Institutes of Health, Bethesda, Md.). […] 67: 5353-5359 (1993); HIV-1/Lys-138 ("Lys-138") was selected for resistance against TSAO-m^3T as described in Balzarini et al, Virology 192: 246-253 (1993) and Balzarini et al, Proc. Nat. Acad. Sci. USA 90: 6952-6956 (1993); HIV-1/181-Cys ("181-Cys") was selected for resistance against pyridinone L-697,661 as described in Balzarini et al, Virology 192: 246-253 (1993); and HIV-1/188-His ("188-His") was selected for resistance against HEPT as described in Balzarini et al, Mol. Pharmocol. 44: 694-701 (1993). 188-His was then further converted to HIV-1/188-Leu "188-Leu") upon further passage in cell culture in the absence of the HEPT.
(§2) CEM cells were suspended at ≈300,000 cells per ml of culture medium and infected with approximately 100 CCID50 (CCID50 being the 50% cell culture infective dose) of HIV-1(IIIB) or one of the HIV-1 RT mutant strains described above. Then 100 μl of the infected cell suspensions was added to 200 μl microtiter plate wells containing 100 μl of appropriate serial (5-fold) dilutions of the test compounds. The inhibitory effect of the test compounds on HIV-1 induced syncytium formation in CEM cells was examined microscopically on day 4 post infection.

HIV-1/100-Ile = experiment: Inhibition of HIV-1 induced syncytium formation in CEM cells, RT mutant 100-Ile; settings: Human immunodeficiency virus 1, CCRF-CEM, 96 h, Table 2B, day 4, averages of 2 to 3 independent experiments, read-out: Antiviral Activity of Comparative Compounds EC50, 100-Ile
Source text: as §1, §2

HIV-1/106-Ala = experiment: Inhibition of HIV-1 induced syncytium formation in CEM cells, RT mutant 106-Ala; settings: Human immunodeficiency virus 1, CCRF-CEM, 96 h, Table 2B, day 4, averages of 2 to 3 independent experiments, read-out: Antiviral Activity of Comparative Compounds EC50, 106-Ala
Source text: as §1, §2

HIV-1/Lys-138 = experiment: Inhibition of HIV-1 induced syncytium formation in CEM cells, RT mutant 138-Lys; settings: Human immunodeficiency virus 1, CCRF-CEM, 96 h, Table 2B, day 4, averages of 2 to 3 independent experiments, read-out: Antiviral Activity of Comparative Compounds EC50, 138-Lys
Source text: as §1, §2

HIV-1/181-Cys = experiment: Inhibition of HIV-1 induced syncytium formation in CEM cells, RT mutant 181-Cys; settings: Human immunodeficiency virus 1, CCRF-CEM, 96 h, Table 2B, day 4, averages of 2 to 3 independent experiments, read-out: Antiviral Activity of Comparative Compounds EC50, 181-Cys
Source text: as §1, §2

in vitro = settings: human, cem cells, CC50 (50% cytostatic concentration), Table 2B; CEM cell proliferation; averages of 2 to 3 independent experiments
Source text: as §1
^b 50% cytostatic concentration (i.e., compound concentration require
to inhibit CEM cell proliferation by 50%)

Row | Structure (SMILES) | EC50 (HIV-1(IIIB)) [µg/mL] | EC50 (HIV-1/100-Ile) [µg/mL] | EC50 (HIV-1/106-Ala) [µg/mL] | EC50 (HIV-1/Lys-138) [µg/mL] | EC50 (HIV-1/181-Cys) [µg/mL] | CC50 (in vitro) [µg/mL]
1 | Cc1ccsc1C(=S)Nc1ccc(Cl)c(C(=O)OC(C(C)C)C(C)C)c1 [Compound 101] | 0.045 (≈ 0.11 µM) | 3 (≈ 7.32 µM) | 0.2 (≈ 0.488 µM) | 0.33 (≈ 0.805 µM) | 0.55 (≈ 1.34 µM) | ≥ 100
2 | Cc1occc1C(=S)Nc1ccc(Cl)c(C(=O)OC(C(C)C)C(C)C)c1 [Compound 102] | 0.03 (≈ 0.0762 µM) | 0.85 (≈ 2.16 µM) | 0.85 (≈ 2.16 µM) | 0.08 (≈ 0.203 µM) | 0.65 (≈ 1.65 µM) | 3.7 (≈ 9.39 µM)
3 | Cc1occc1C(=S)Nc1ccc(Cl)c(C(=O)OCC(C)C)c1 [Compound 103] | 0.01 (≈ 0.0284 µM) | 0.19 (≈ 0.54 µM) | 0.075 (≈ 0.213 µM) | 0.06 (≈ 0.171 µM) | 0.07 (≈ 0.199 µM) | 8.5 (≈ 24.2 µM)
4 | C=CCOC(=O)c1cc(NC(=S)c2ccoc2C)ccc1Cl [Compound 104] | 0.01 (≈ 0.0298 µM) | 0.65 (≈ 1.94 µM) | 0.4 (≈ 1.19 µM) | 0.2 (≈ 0.596 µM) | 0.37 (≈ 1.1 µM) | 11 (≈ 32.8 µM)
5 | Cc1occc1C(=S)Nc1ccc(Cl)c(C(=O)OCC2CC2)c1 [Compound 105] | 0.015 (≈ 0.0429 µM) | 0.4 (≈ 1.14 µM) | 0.2 (≈ 0.572 µM) | 0.085 (≈ 0.243 µM) | 0.07 (≈ 0.2 µM) | 6.7 (≈ 19.2 µM)
6 | Cc1occc1C(=S)Nc1ccc(Cl)c(C(=O)OCC(F)(F)F)c1 [Compound 106] | 0.007 (≈ 0.0185 µM) | 0.5 (≈ 1.32 µM) | 0.08 (≈ 0.212 µM) | 0.065 (≈ 0.172 µM) | 0.085 (≈ 0.225 µM) | > 100
7 | CCC(CC)OC(=O)c1cc(NC(=S)c2ccoc2C)ccc1Cl [Compound 107] | 0.04 (≈ 0.109 µM) | 0.6 (≈ 1.64 µM) | 0.3 (≈ 0.82 µM) | 0.15 (≈ 0.41 µM) | 0.3 (≈ 0.82 µM) | 16 (≈ 43.7 µM)
8 | CCC(CC)COC(=O)c1cc(NC(=S)c2ccoc2C)ccc1Cl [Compound 108] | 0.007 (≈ 0.0184 µM) | 0.27 (≈ 0.711 µM) | 0.08 (≈ 0.211 µM) | 0.07 (≈ 0.184 µM) | 0.08 (≈ 0.211 µM) | 7 (≈ 18.4 µM)
9 | Cc1occc1C(=S)Nc1ccc(Cl)c(C(=O)OC2CCCC2)c1 [Compound 109] | 0.005 (≈ 0.0137 µM) | 0.17 (≈ 0.467 µM) | 0.04 (≈ 0.11 µM) | 0.035 (≈ 0.0962 µM) | 0.045 (≈ 0.124 µM) | 4.3 (≈ 11.8 µM)
10 | C=CC(C)(C)OC(=O)c1cc(NC(=S)c2ccoc2C)ccc1Cl [Compound 110] | 0.04 (≈ 0.11 µM) | 4 (≈ 11 µM) | 0.2 (≈ 0.55 µM) | 0.1 (≈ 0.275 µM) | 0.5 (≈ 1.37 µM) | 25 (≈ 68.7 µM)
11 | C=CCON=Cc1cc(NC(=S)c2ccoc2C)ccc1Cl [Compound 111] | 0.007 (≈ 0.0209 µM) | 0.5 (≈ 1.49 µM) | 0.085 (≈ 0.254 µM) | 0.077 (≈ 0.23 µM) | 0.3 (≈ 0.896 µM) | 12 (≈ 35.8 µM)
12 | C#CCON=Cc1cc(NC(=S)c2ccoc2C)ccc1Cl [Compound 112] | 0.025 (≈ 0.0751 µM) | 0.75 (≈ 2.25 µM) | 0.35 (≈ 1.05 µM) | 0.5 (≈ 1.5 µM) | 0.8 (≈ 2.4 µM) | 10 (≈ 30 µM)
13 | Cc1occc1C(=S)Nc1ccc(Cl)c(C=NOC2CCCC2)c1 [Compound 113] | 0.023 (≈ 0.0634 µM) | 0.27 (≈ 0.744 µM) | 0.085 (≈ 0.234 µM) | 0.15 (≈ 0.413 µM) | 0.13 (≈ 0.358 µM) | 5.4 (≈ 14.9 µM)
14 | Cc1occc1C(=S)Nc1ccc(Cl)c(OCC(=O)OC(C)(C)C)c1 [Compound 115] | 0.29 (≈ 0.759 µM) | 0.65 (≈ 1.7 µM) | 0.2 (≈ 0.524 µM) | 0.77 (≈ 2.02 µM) | 0.5 (≈ 1.31 µM) | 4.3 (≈ 11.3 µM)
15 | CCOC(=O)CSc1cc(NC(=S)c2ccoc2C)ccc1Cl [Compound 116] | 0.085 (≈ 0.23 µM) | 1.8 (≈ 4.87 µM) | 5.5 (≈ 14.9 µM) | 0.6 (≈ 1.62 µM) | 2 (≈ 5.41 µM) | ≥ 100
16 | C#CCOc1cc(NC(=S)c2ccoc2C)ccc1Cl [Compound 117] | 0.06 (≈ 0.196 µM) | 5 (≈ 16.4 µM) | 0.75 (≈ 2.45 µM) | 0.35 (≈ 1.14 µM) | 4 (≈ 13.1 µM) | 18 (≈ 58.9 µM)
